According to article PMC10057893, “Synthesis and Biological Evaluation of New Schiff Bases Derived from 4-Amino-5-(3-fluorophenyl)-1,2,4-triazole-3-thione” (Molecules, 2023):

What was measured:
PC3 = experiment: MTT cell viability assay; assay type: cell-based, human
Protocol: (§1) All the cell lines were purchased from the American Type Culture Collection (ATCC, Rockville, MD, USA) and cultured in strictly defined conditions according to the recommended ATCC protocol. The PC3 cells were cultured in RPMI 1640 (Roswell Park Memorial Institute, Biowest SAS, Nuaillé, France), while the MDA-MB-231 and HaCaT cells were maintained in DMEM (Dulbecco’s Modified Eagle’s Medium, Biowest SAS, Nuaillé, France) supplemented with 1% streptomycin and penicillin and in 10% heat-inactivated fetal bovine serum (FBS, Gibco BRL San Francisco, CA, USA) with 1% streptomycin and penicillin. The cells were incubated in a 37 °C/5% CO2 humidified incubator. They were cultured until 80–90% confluence was achieved. Then, they were harvested by treatment with 0.25% trypsin-0.02% EDTA (Gibco BRL, San Francisco, CA, USA) and used in the experiments. Untreated cells were used as a control. […] After 24 h of incubation, the culture medium was replaced with a fresh medium. […] Then, the medium was aspirated and formed formazan crystals were solubilized by adding isopropanol-DMSO mixture (1:1 vol). The intensity of the dissolved crystals was measured using a UVM 340 reader (ASYS Hitech GmbH, Eugendorf, Austria) at a wavelength of 570 nm. Cell viability was estimated by the percentage of MTT reduction in cells to which the tested compounds were added, compared to the control sample, where only the medium was added. The experiments were repeated three times. The IC50 was calculated using GraphPad Prism 9.0.0 (GraphPad Software).

MDA-MB-231 = experiment: MTT cell viability assay; assay type: cell-based, human
Protocol: as §1

MTT cell viability assay = assay type: cell-based; settings: human, HaCaT cells (immortal keratinocytes), HaCaT normal cell line, 72 h (table footnote), read-out: Cytotoxic activity IC50 (converted)
Protocol: as §1

| Structure (SMILES) | melting point | IC50 (PC3; Homo sapiens, PC-3, PC3, MTT, 72 h (table footnote), read-out: Cytotoxic activity IC50) | SI (Selectivity Index) (PC3; IC50 normal cell line (HaCaT)/IC50 PC3) | IC50 (MDA-MB-231; Homo sapiens, MDA-MB-231, MTT, 72 h (table footnote), read-out: Cytotoxic activity IC50) | SI (Selectivity Index) (MDA-MB-231; IC50 normal cell line (HaCaT)/IC50 MDA-MB-231) | IC50 at 72 h (MTT cell viability assay) |
| --- | --- | --- | --- | --- | --- | --- |
| CCCOc1ccc(/C=N/n2c(-c3cccc(F)c3)n[nH]c2=S)cc1 [RO6, 5-(3-fluorofenylo)-4-[(4-propoxybenzylidene)amino]-2,4-dihydro-3H-1,2,4-triazole-3-thione] | 189 to 192 °C |  |  |  |  |  |
| COc1cccc2c1C(=O)c1c(O)c3c(c(O)c1C2=O)C[C@@](O)(C(=O)CO)C[C@@H]3O[C@H]1C[C@H](N)[C@H](O)[C@H](C)O1 [Doxorubicin, reference compound] |  | 300 nM | 1 | 830 nM | 0.36 | 300 nM |
